pIC50: −log10 of the molar value.
Tests used:
Caki1 and A498 cells = assay: Western blot of ER stress markers; type: cell-based, human; conditions: 75 nM drug or shSCD780 knockdown, 48 hours
Description: (§1) Protein extracts, electrophoresis, and membrane transfers were prepared as previously described (Copland J A, Marlow L A, Kurakata S, Fujiwara K, Wong A K, Kreinest P A, et al. Novel highaffinity PPARgamma agonist alone and in combination with paclitaxel inhibits human anaplastic thyroid carcinoma tumor growth via p21WAF1/CIP1. Oncogene. 2006; 25:2304-17). Primary antibodies included SCD1, PARP, DDIT3, BiP, sXBP1, and β-actin. A Supersignal chemiluminescent kit was used to perform detection.

[1] = system: MDA-231 (triple negative) breast cancer cells; assay: Cell number growth inhibition assay; type: cell-based, human
Description: (§2) A number of cancer cell lines were tested to determine whether SCD1 protein expression correlates with growth inhibition of an SCD1 inhibitor in human cancer cell lines.
(§3) Cells (20,000/ml) were plated in 12 well cell culture plates, allowed to attach and treated with the indicated dose of SCD1 inhibitor ([…]) or standard of care (gemcitabine). Cell number was counted using a Coulter Counter. As show in FIG. 7, the data are expressed as percent of DMSO control. Each value represents triplicates. Western analysis for SCD1 protein expression was performed on each cell line with beta-actin as the loading control.
(§4) The following cell lines were studied using a similar method as that described above.

[2] = system: T47D (PR+) breast cancer cells; assay: Cell number growth inhibition assay; type: cell-based, human
Description: as §2, §3, §4

[3] = system: SNU449 liver cancer cells; assay: Cell number growth inhibition assay; type: cell-based, human; conditions: SNU449
Description: as §2, §3, §4

[4] = system: KTC3 thyroid cancer cells; assay: Cell number growth inhibition assay; type: cell-based, human
Description: as §2, §3, §4

[5] = system: DU-145 prostate cancer cells; assay: Cell number growth inhibition assay; type: cell-based, human
Description: as §2, §3, §4

[6] = system: A549 nonsmall cell lung cancer cells; assay: Cell number growth inhibition assay; type: cell-based, human
Description: as §2, §3, §4

[7] = system: HOV TAX2 ovarian cancer cells; assay: Cell number growth inhibition assay; type: cell-based, human
Description: as §2, §3, §4

Calu-1 lung cancer cells = assay: Cell number growth inhibition assay; type: cell-based, human
Description: as §2, §3, §4

Caco2 colon cancer cells = assay: Cell number growth inhibition assay; type: cell-based, human
Description: as §2, §3, §4

[8] = system: OVCA420 ovarian cancer cells; assay: Cell number growth inhibition assay; type: cell-based, human
Description: as §2, §3, §4

[9] = system: HT1376 bladder cancer cells; assay: Cell number growth inhibition assay; type: cell-based, human
Description: as §2, §3, §4

[10] = system: BCJ4T bladder cancer cells; assay: Cell number growth inhibition assay; type: cell-based, human
Description: as §2, §3, §4

Mela 11 melanoma cells = assay: Cell number growth inhibition assay; type: cell-based, human
Description: as §2, §3, §4

[11] = system: MCF-7 (ER+/PR+) breast cancer cells; assay: Cell number growth inhibition assay; type: cell-based, human
Description: as §2, §3, §4

A375 melanoma cells = assay: Cell number growth inhibition assay; type: cell-based, human
Description: as §2, §3, §4

T24 bladder cancer cells = assay: Cell number growth inhibition assay; type: cell-based, human
Description: as §2, §3, §4

[12] = system: LNCAP prostate cancer cells; assay: Cell number growth inhibition assay; type: cell-based, human
Description: as §2, §3, §4

HT29 colon cancer cells = assay: Cell number growth inhibition assay; type: cell-based, human
Description: as §2, §3, §4

[13] = system: ATF6 luciferase reporter in A498 cells
Description: (§7) For transient transfection, Caki1 and A498 cells were transfected using Lipofectamine 2000. Cells treated with DMSO vs. A939572 or infected using shSCD780 lentiviral constructs vs. NT control were harvested after 48 hrs using Promega's Dual Luciferase assay kit per the manufacturer's protocol and luciferase activity was measured using a Veritas Luminometer; reported as relative luminescence.
(§8) Caki1 and A498 cells transfected with an ATF6 luciferase reporter (p5xATF6-GL3) were treated with a 75 nM dose of A939572 or were infected with shSCD780. Resulting luminescence was measured after 48 hours.

[14] = system: ATF6 luciferase reporter in Caki1 cells
Description: as §7, §8

A498 ccRCC xenografts [15] = assay: IHC analysis of resected xenograft tumors
Description: The TMAs were mounted on slides from paraffin-embedded blocks according to IHC procedure and samples were blocked with Diluent that contained Background Reducing Components (Dakocytomation) for 30 min and then probed for SCD1, Ki67, Caspase-3, CD31, phospho-mTOR, DDIT3, and XBP1. […] Stain scoring was done using algorithms generated with Imagescope software created by a histologist. H-scores were calculated based upon signal intensity (0-3+) using the formula: [(1+%×1)+(2+%×2)+(3+%×3)], intensity (I)-scores were calculated by dividing signal intensity by area, and nuclear (N)-scores were calculated by dividing % positive nuclei by total nuclei examined per area. Cases where insufficient tumor tissue presented were excluded from the study. 20× images were obtained using Scanscope XT and Imagescope software.
IHC analysis of tumors resected from each treatment group was analyzed for proliferation, angiogenesis, and cell death (FIG. 6B).

A498 ccRCC xenografts [16] = assay: Western blot of CHOP in xenograft tumor tissue; type: in vivo, athymic nude (nu/nu) mice; conditions: normalized to β-actin, tumor tissue samples
Description: as §1

Caki1 cells = assay: qPCR of five ER stress genes; type: cell-based, human
Description: (§5) An RNAqueous Midi Kit was utilized to extract and purify RNA from cell lines. Human tissue RNA was prepared using TRIzol® per manufacturer's protocol followed by purification using the RNAqueous Midi Kit. The O.D. 260/280 ratio of the mRNA was at least 1.8 and the 18s/28s bands were verified on a 1% agarose gel. cDNA was prepared from purified RNA samples using High Capacity cDNA Reverse Transcriptase Kit per manufacturer's instruction. TaqMan®Fast Universal PCR Master Mix and TaqMan®FAMTM dye-labeled probes including POLR2A (Hs00172187_m1) (normalization control), SCD1 (Hs01682761_m1), HSPA5 (Hs99999174_m1), CEBPβ (CEBPB Hs00270923_s1), GADD45A (Hs00169255_m1), DDIT3 (Hs01090850_m1), and HERPUD1 (Hs01124269_m1) were combined with prepared cDNA samples to analyze relative mRNA expression via qPCR. Fold change values were compared between normal and tumor, non-target scrambled lentiviral and target lentiviral infected, and DMSO vs. A939572 treated samples using the ΔΔCt method (Schmittgen T D, Livak K J. Analyzing real-time PCR data by the comparative C(T) method. Nat Protoc. 2008; 3:1101-8).
(§6) In order to validate the specificity of ER stress induction mediated by both A939572 and shSCD780, rescue assays were performed using OA-BSA in Caki1 and A498 cells qPCR analysis of five ER stress genes identified in the gene array including BiP, CHOP, HERPUD1 (homocysteine-inducible, ER-stress inducible, ubiquitin-like-1), GADD45a (DNA damage inducible transcript 1, DDIT1), and CEBPβ (CCAAT/enhancer binding protein beta) were examined.

A498 cells = assay: qPCR of five ER stress genes; type: cell-based, human
Description: as §5, §6

[17] = read-out: estimated IC50 concentration, growth inhibition

SMILES: CNC(=O)c1cccc(NC(=O)N2CCC(Oc3ccccc3Cl)CC2)c1 [A939572]
- protein expression of ER stress markers BiP, CHOP, spliced-XBP1 (Caki1 and A498 cells): amplified expression
- growth inhibition [1]: growth inhibited in a dose dependent fashion
- growth inhibition [2]: growth inhibited in a dose dependent fashion
- growth inhibition [3]: growth inhibited in a dose dependent fashion
- pIC50 [3, 17]: ~7.00
- growth inhibition [4]: growth inhibited in a dose dependent fashion
- growth inhibition [5]: growth inhibited in a dose dependent fashion
- growth inhibition [6]: growth inhibited in a dose dependent fashion
- growth inhibition [7]: growth inhibited in a dose dependent fashion
- growth inhibition (Calu-1 lung cancer cells): not growth inhibited
- growth inhibition (Caco2 colon cancer cells): growth inhibited in a dose dependent fashion
- growth inhibition [8]: growth inhibited in a dose dependent fashion
- growth inhibition [9]: growth inhibited in a dose dependent fashion
- growth inhibition [10]: not growth inhibited
- growth inhibition (Mela 11 melanoma cells): not growth inhibited
- growth inhibition [11]: growth inhibited in a dose dependent fashion
- growth inhibition (A375 melanoma cells): growth inhibited in a dose dependent fashion
- pIC50 (A375 melanoma cells; [17]): ~7.30
- growth inhibition (T24 bladder cancer cells): growth inhibited in a dose dependent fashion
- growth inhibition [12]: growth inhibited in a dose dependent fashion
- growth inhibition (HT29 colon cancer cells): growth inhibited in a dose dependent fashion
- reporter activation with addition of OA-BSA ([13]; A498, + OA-BSA): significantly reduced reporter activation
- luciferase activity, fold change induction ([13]; A498, +BSA, 75 nM A939572 or shSCD780, 48 hours, vs DMSO and NT controls): 3.8 fold change
- reporter activation with addition of OA-BSA ([14]; Caki1, + OA-BSA): significantly reduced reporter activation
- luciferase activity, fold change induction ([14]; Caki1, +BSA, 75 nM A939572 or shSCD780, 48 hours, vs DMSO and NT controls): 1.6 fold change
- cell death, cleaved caspase-3 (CC3) (A498 ccRCC xenografts [15]; vs placebo / other groups): moderate increase
- proliferation, percent positivity of nuclear Ki67 staining (A498 ccRCC xenografts [15]; vs placebo control): decreased proliferation
- CHOP expression (ER stress) (A498 ccRCC xenografts [16]): Increased expression of CHOP
- ER stress gene expression with addition of OA-BSA (Caki1 cells; Caki1, + OA-BSA): blocked
- mRNA expression of ER stress genes BiP, CHOP, HERPUD1, GADD45a, CEBPβ (Caki1 cells; Caki1, vs DMSO+BSA or NT control): significantly increased levels
- ER stress gene expression with addition of OA-BSA (A498 cells; A498, + OA-BSA): blocked
- mRNA expression of ER stress genes BiP, CHOP, HERPUD1, GADD45a, CEBPβ (A498 cells; A498, vs DMSO+BSA or NT control): significantly increased levels
